According to patent US12624004B2 (Fudan University, priority 2019, dated 2026):
Where a name gives a salt, the structure may show the parent alone. Read-outs that look alike come from different tables or passages of the source.

Legend:
Female mice = assay: In vivo hot plate method analgesia test; conditions: intraperitoneal; for Maximum percentage effective analgesic (% MPE): Table 1-2, hot plate 55° C.; for Maximum percentage effective analgesic (% MPE) / % MPE (5 mg/kg): 5 mg/kg dose; for % MPE @ 10 mg/kg: Table 3-2, hot plate 55° C.; for Maximum percentage effective analgesia (% MPE): Table 5-2, hot plate 55° C.; for % MPE @ 10 mg/kg / Maximum percentage effective analgesia (% MPE): 10 mg/kg dose; for % MPE (5 mg/kg): Table 2-2, hot plate 55° C.; for ED50: Mus musculus, ip, Table 3-2, hot plate
Procedure: Female mice weighing about 20 g were placed on a hot plate apparatus preheated to 55° C., and the latency of the hindfoot response of the mice was used as the pain threshold indicator. Animals were screened before the experiment, and those with response latency less than 5 s or more than 30 s were excluded. To prevent foot scalding, the maximum observation time was set at 60 s. The basal pain threshold was the average of two measurements, with a 5-min interval between measurements. pain thresholds were measured at 15 m, 30 m, 60 m and 120 m after intraperitoneal injection in each group of mice. The percentage effective analgesia (% MPE) was calculated according to the following formula: percentage effective analgesia (% MPE) (post-dose latency−pre-dose latency)/(60−pre-dose latency)×100%. ED50 values were calculated based on the effective percentage of analgesia using the software Graphpad prism 5.0 software.
(§1) Female mice weighing about 20 g were placed on a hot plate apparatus preheated to 55° C., and the latency of the hindfoot response of the mice was used as the pain threshold indicator. Animals were selected before the experiment, and those with response latency less than 5 s or greater than 30 s were excluded. To prevent foot scalding, the maximum observation time was set at 60 s. The basal pain threshold was the average of two measurements, with a 5-min interval between measurements. pain thresholds were measured at 15 min, 30 min, 60 min and 120 min after intraperitoneal administration in each group of mice. The percentage of analgesic effectiveness (% MPE) was calculated according to the following equation. Percentage of effective analgesia (% MPE)_(Pre-dose incubation period−Incubation period after drug administration)/(60-Pre-dose incubation period)×100%. ED50 values were calculated based on the effective percentage of analgesia using GraphPad prism 5.0 software.
as §1, with “were screened” for “were selected”, “measurements. Pain” for “measurements. pain”, “following formula.” for “following equation. Percentage of effective analgesia (% MPE)_(Pre-dose incubation period−Incubation period after drug administration)/(60-Pre-dose incubation period)×100%. ED50 values were calculated based on the effective percentage of analgesia using GraphPad prism 5.0 software.”
ED50 values were calculated based on the effective percentage of analgesia using Graphpad Prism 5.0.
Female mice weighing about 20 g were placed on a hot plate apparatus preheated to 55° C., and the latency of the hindfoot response of the mice was used as the pain threshold indicator. Animals were screened before the experiment, and those with response latency less than 5 s or more than 30 s were excluded. To prevent foot scalding, the maximum observation time was set at 60 s. The basal pain threshold was the average of two measurements, with a 5-min interval between measurements. pain thresholds were measured at 15 min, 30 min, 60 min and 120 min after intraperitoneal administration in each group of mice. The analgesic effective percentage (% MPE) was calculated according to the following formula: analgesic effective percentage (% MPE)=(latency after drug administration−latency before drug administration)/(60−latency before drug administration)×100%. ED50 values were calculated based on the effective percentage of analgesia using the software Graphpad prism 5.0.
Female mice weighing about 20 g were placed on a hot plate apparatus preheated to 55° C. and the latency of the hindfoot response was used as an indicator of pain threshold. […]

μ opioid receptor = biological target: T1, μ opioid receptor (Homo sapiens, UniProt P35372); assay: Competition binding assay on membranes of CHO cells expressing μ opioid receptor, [3H]-labeled ligand; conditions: for inhibition at 10 µM: Table 1-1, 10 μM concentration of compound, mean ± SD of three measurements; for Ki: read-out: μOR Ki
T1 construct: expressed in transfected cells; host or cells: CHO cells (membranes)
Summary of the method: (§2)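 CHO membranes (20–30 μg protein) incubated with [3H]-labeled ligand at 1–2 nM and test compounds, 30 min at 30° C; nonspecific binding with 1 μM corresponding ligand. Filtered on GF/C, washed with 50 mM Tris-HCl pH 7.4, scintillation-counted. IC50 converted to Ki by Ki=IC50/(1+[L]/Kd).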

δ opioid receptor = biological target: T2, δ opioid receptor (Homo sapiens, UniProt P41143); assay: Competition binding assay on membranes of CHO cells expressing δ opioid receptor, [3H]-labeled ligand; conditions: for inhibition at 10 µM / inhibition at 1 µM: 0.5 h; for inhibition at 10 µM: Table 1-1, 10 μM concentration of compound
T2 construct: expressed in transfected cells; host or cells: CHO cells (membranes)
Summary of the method: as §2

κ opioid receptor = biological target: T3, κ opioid receptor (Homo sapiens, UniProt P41145); assay: Competition binding assay on membranes of CHO cells expressing κ opioid receptor, [3H]-labeled ligand; conditions: for inhibition at 10 µM / inhibition at 1 µM: 0.5 h; for inhibition at 10 µM: Table 1-1, 10 μM concentration of compound; for Ki: read-out: κOR Ki
T3 construct: expressed in transfected cells; host or cells: CHO cells (membranes)
Summary of the method: as §2

[1] = Table 3-1, 1 μM concentration of compounds, read-out: μOR Binding rate (%)
[2] = Table 3-1, 1 μM concentration of compounds, read-out: δOR Binding rate (%)
[3] = Table 3-1, 1 μM concentration of compounds, read-out: κOR Binding rate (%)
[4] = 0.5 h, Table 5-1, 1 μM concentration of compound, read-out: μOR Combination rate (%)
[5] = Table 5-1, 1 μM concentration of compound, read-out: δOR Combination rate (%)
[6] = Table 5-1, 1 μM concentration of compound, read-out: κOR Combination rate (%)
[7] = Table 2-1, 1 μM concentration of compound, read-out: δOR Binding rate (%)
[8] = Table 2-1, 1 μM concentration of compound, read-out: κOR Binding rate (%)

## COc1cccc(C2(O)CCC(NS(=O)(=O)c3cccs3)CC2CN(C)C)c1.Cl (stereo not shown) [N-(3-((Dimethylamino)methyl)-4-hydroxy-4-(3-methoxyphenyl)cyclohexyl)thiophene-2-sulfonamide hydrochloride]
Female mice
  Maximum percentage effective analgesic (% MPE): 19.5%
μ opioid receptor; read-out: μOR Binding rate (%)
  inhibition at 10 µM: 57 ± 4.8%
δ opioid receptor; read-out: δOR Binding rate (%)
  inhibition at 10 µM: 0%
κ opioid receptor; read-out: κOR Binding rate (%)
  inhibition at 10 µM: 37 ± 6.8%

## COC(=O)c1ccsc1NC(=O)N1CCC(O)(c2cccc(OC)c2)C(CN(C)C)C1 (stereo not shown) [FWBF18, Methyl 2-(3-((dimethylamino)methyl)-4-hydroxy-4-(3-methoxyphenyl)piperidine-1-carboxamide) thiophene-3-carboxylate hydrochloride]
Female mice
  % MPE @ 10 mg/kg: 22.76%
μ opioid receptor; [1]
  inhibition at 1 µM: 2.3%
δ opioid receptor; [2]
  inhibition at 1 µM: 16 ± 12.4%
κ opioid receptor; [3]
  inhibition at 1 µM: 9.2 ± 3.1%

## COc1cccc(C2(O)CCC(N(C)S(=O)(=O)c3cccs3)CC2CN(C)C)c1.Cl (stereo not shown) [N-(3-((Dimethylamino)methyl)-4-hydroxy-4-(3-methoxyphenyl)cyclohexyl)-N-methylthiophene-2-sulfonamide hydrochloride]
Female mice
  Maximum percentage effective analgesic (% MPE): 14.3%
μ opioid receptor; read-out: μOR Binding rate (%)
  inhibition at 10 µM: 62 ± 6.8%
δ opioid receptor; read-out: δOR Binding rate (%)
  inhibition at 10 µM: 0%
κ opioid receptor; read-out: κOR Binding rate (%)
  inhibition at 10 µM: 51.4 ± 7.5%

## COc1cccc(C2(O)CCN(C(=O)NC34CC5CC(CC(C5)C3)C4)CC2CN(C)C)c1 [FWBF14, N-((3S,5S,7S)-adamantan-1-yl)-3-((dimethylamino)methyl)-4-hydroxy-4-(3-methoxyphenyl) piperidine-1-carboxamide hydrochloride]
Female mice
  % MPE @ 10 mg/kg: 24.15%
μ opioid receptor; [1]
  inhibition at 1 µM: 13.5 ± 4.8%
δ opioid receptor; [2]
  inhibition at 1 µM: 0%
κ opioid receptor; [3]
  inhibition at 1 µM: 17.9 ± 4.8%

## COc1cccc(C2(O)CCN(C(=O)Cn3cnnn3)CC2CN(C)C)c1.Cl (stereo not shown) [FWBE7, 1-(3-((Dimethylamino)methyl)-4-hydroxy-4-(3-methoxyphenyl)piperidin-1-yl)-2-(1H-tetrazol-1-yl)ethyl-1-one hydrochloride]
Female mice
  Maximum percentage effective analgesia (% MPE): 12.0%
μ opioid receptor; [4]
  inhibition at 1 µM: 0%
δ opioid receptor; [5]
  inhibition at 1 µM: 8.9 ± 2.4%
κ opioid receptor; [6]
  inhibition at 1 µM: 22.9 ± 0.6%

## COc1cccc(C2(O)CCN(S(=O)(=O)Cc3ccccc3F)CC2CN(C)C)c1.Cl (stereo not shown) [FWBH14, 3-((Dimethylamino)methyl)-1-((2-fluorobenzyl)sulfonyl)-4-(3-methoxyphenyl)piperidin-4-ol hydrochloride]
Female mice
  % MPE (5 mg/kg): 81.20%
μ opioid receptor; Table 2-1
  Ki: 29.6 ± 2.53 nM
δ opioid receptor; [7]
  inhibition at 1 µM: 40.8 ± 2.66%
κ opioid receptor; [8]
  inhibition at 1 µM: 17.6 ± 6.34%

## COc1cccc(C2(O)CCN(S(=O)(=O)C[C@@]34CC[C@@H](CC3O)C4(C)C)CC2CN(C)C)c1 (stereo partly drawn) [FWBH26, 3-((Dimethylamino)methyl)-1-((((1R,4S)-2-hydroxy-7,7-dimethylbicyclo[2.2.1]hept-1-yl)methyl)sulfonic acid acyl)-4-(3-methoxyphenyl)piperidin-4-ol hydrochlorid, hydrochloride]
Female mice
  % MPE (5 mg/kg): 44.91%
μ opioid receptor; Table 2-1
  Ki: 11.5 ± 1.6 nM
δ opioid receptor; [7]
  inhibition at 1 µM: 9.15 ± 1.92%
κ opioid receptor; Table 2-1
  Ki: 8.2 ± 3.1 nM

## COc1cccc(C2(O)CCN(C(=O)Nc3ccccc3)CC2CN(C)C)c1.Cl (stereo not shown) [FWBF1, 3-((Dimethylamino)methyl)-4-hydroxy-4-(3-methoxyphenyl)-N-phenylpiperidine-1-carboxamide hydrochloride]
Female mice
  ED50: 2.75 mg/kg
μ opioid receptor; Table 3-1
  Ki: 7.3 ± 0.5 nM
δ opioid receptor; Table 3-1, read-out: δOR Ki
  Ki: 849 ± 96.6 nM
κ opioid receptor; Table 3-1
  Ki: 49.1 ± 6.9 nM

## COc1cccc(C2(O)CCN(S(=O)(=O)Cc3cccc([N+](=O)[O-])c3)CC2CN(C)C)c1.Cl (stereo not shown) [FWBH22, 3-((Dimethylamino)methyl)-4-(3-methoxyphenyl)-1-((3-nitrobenzyl)sulfonyl)piperidin-4-ol hydrochloride]
Female mice
  % MPE (5 mg/kg): 41.43%
μ opioid receptor; Table 2-1
  Ki: 212 ± 9 nM
δ opioid receptor; [7]
  inhibition at 1 µM: 10.2 ± 3.19%
κ opioid receptor; [8]
  inhibition at 1 µM: 32.7 ± 3.1%

## COc1cccc(C2(O)CCN(C(=O)Nc3cccc(F)c3)CC2CN(C)C)c1 (stereo not shown) [FWBF7, 3-((Dimethylamino)methyl)-N-(3-fluorophenyl)-4-hydroxy-4-(3-methoxyphenyl)piperidine-1-carboxamide hydrochloride]
Female mice
  ED50: 4.12 mg/kg
μ opioid receptor; [1]
  inhibition at 1 µM: 36.7 ± 7.4%
δ opioid receptor; [2]
  inhibition at 1 µM: 9.2 ± 7.8%
κ opioid receptor; [3]
  inhibition at 1 µM: 0%

## COc1cccc(C2(O)CCC(N(C)S(=O)(=O)c3cccc(Cl)c3)CC2CN(C)C)c1.Cl (stereo not shown) [3-Chloro-N-(3-((dimethylamino)methyl)-4-hydroxy-4-(methoxyphenyl)cyclohexyl)-N-methylbenzenesulfonamide hydrochloride]
Female mice
  Maximum percentage effective analgesic (% MPE): 20.2%
μ opioid receptor; read-out: μOR Binding rate (%)
  inhibition at 10 µM: 90 ± 2%
δ opioid receptor; read-out: δOR Binding rate (%)
  inhibition at 10 µM: 13.8 ± 3%
κ opioid receptor; read-out: κOR Binding rate (%)
  inhibition at 10 µM: 66.6 ± 4.8%

## COc1cccc(C2(O)CCN(C(=O)N[C@@H](C)c3ccccc3)CC2CN(C)C)c1 (stereo partly drawn) [FWBF13, 3-((Dimethylamino)methyl)-4-hydroxy-4-(3-methoxyphenyl)-N-((S)-1-phenylethyl)piperidine-1-carboxamide hydrochloride]
Female mice
  % MPE @ 10 mg/kg: 5.77%
μ opioid receptor; [1]
  inhibition at 1 µM: 20.5 ± 5.5%
δ opioid receptor; [2]
  inhibition at 1 µM: 0%
κ opioid receptor; [3]
  inhibition at 1 µM: 4.1 ± 6.7%

## COc1cccc(C2(O)CCN(C(=O)Cc3ccccc3)CC2CN(C)C)c1.Cl (stereo not shown) [FWBE3, 1-(3-((Dimethylamino)methyl)-4-hydroxy-4-(3-methoxyphenyl)piperidin-1-yl)-2-phenylethyl-1-one hydrochloride]
Female mice
  Maximum percentage effective analgesia (% MPE): 63.5%
μ opioid receptor; 0.5 h, read-out: μOR Combination rate (%)
  inhibition at 1 µM: 41.1 ± 2.3%
δ opioid receptor; read-out: δOR Combination rate (%)
  inhibition at 1 µM: 11.7 ± 0.9%
κ opioid receptor; read-out: κOR Combination rate (%)
  inhibition at 1 µM: 23.4 ± 5.7%

## COc1cccc(C2(O)CCN(C(=O)Nc3cccs3)CC2CN(C)C)c1 (stereo not shown) [FWBF19, 3-((Dimethylamino)methyl)-4-hydroxy-4-(3-methoxyphenyl)-N-(thiophen-2-yl)piperidine-1-carboxamide hydrochloride]
Female mice
  % MPE @ 10 mg/kg: 20.07%
μ opioid receptor; [1]
  inhibition at 1 µM: 0%
δ opioid receptor; [2]
  inhibition at 1 µM: 38.2 ± 9.4%
κ opioid receptor; [3]
  inhibition at 1 µM: 27.5 ± 6.4%

## COc1cccc(C2(O)CCN(C(=O)c3cc(F)c(F)cc3F)CC2CN(C)C)c1.Cl (stereo not shown) [FWBE5, (3-((Dimethylamino)methyl)-4-hydroxy-4-(3-methoxyphenyl)piperidin-1-yl)(2,4,5-trifluorophenyl)methanone hydrochloride]
Female mice
  Maximum percentage effective analgesia (% MPE): 3%
μ opioid receptor; [4]
  inhibition at 1 µM: 13 ± 0.2%
δ opioid receptor; [5]
  inhibition at 1 µM: 7 ± 6.3%
κ opioid receptor; [6]
  inhibition at 1 µM: 23 ± 5.9%

## COc1cccc(C2(O)CCN(C(=O)NC(C)C34CC5CC(CC(C5)C3)C4)CC2CN(C)C)c1.Cl [FWBF15, N-(1-((3R,5R,7R)-adamantan-1-yl)ethyl)-3-((dimethylamino)methyl)-4-hydroxy-4-(3-methoxyphenyl)piperidine-1-carboxamide hydrochloride]
Female mice
  % MPE @ 10 mg/kg: 22.07%
μ opioid receptor; [1]
  inhibition at 1 µM: 32.8 ± 5.5%
δ opioid receptor; [2]
  inhibition at 1 µM: 0%
κ opioid receptor; [3]
  inhibition at 1 µM: 10.4 ± 10.2%
